# In patent US20230150951A1, “2,5- OR 2,6-DISUBSTITUTED HYDROQUINONE DERIVATIVES WITH AT LEAST ONE CARBOXY, SULFO OR AMIDO GROUP USEFUL AS MEDICAMENTS” (OM PHARMA SA, priority 2020, published 2023):
# Assays:
# Renca tumor cells = experiment: Subcutaneous kidney cancer syngenic model (Renca); assay type: in vivo, BALB/c mice; parameters: concentration or dose not given beside the values
# Excerpt: The objective of this study was to evaluate preclinically the in vivo therapeutic efficacy study of compounds according to the present invention for the treatment of subcutaneously murine pancreatic cancer syngenic model (Pan02) in female C57BL/6 mice and kidney cancer syngenic model (Renca) in female BALB/c mice.
# The cells in exponential growth phase were harvested and quantitated by cell counter before tumor inoculation.
# Tumor Inoculation for Renca model: each mouse was inoculated subcutaneously in the right rear flank region with Renca tumor cells (1×10^6) in 0.1 mL of PBS for tumor development.
# Randomization: The randomization was started when the mean tumor size reaches approximately 100 (80-110) mm^3. For both models, 48 mice were enrolled in the study. All animals were randomly allocated to 6 study groups. Randomization were performed based on “Matched distribution” method using the multi-task method (StudyDirector™ software, version 3.1.399.19). The date of randomization was denoted as day 0.
# Observation and Data Collection: After tumor cells inoculation, the animals were checked daily for morbidity and mortality. During routine monitoring, the animals were checked for any effects of tumor growth and treatments on behavior such as mobility, food and water consumption, body weight gain/loss (body weights were measured twice per week after randomization), eye/hair matting and any other abnormalities. Mortality and observed clinical signs were recorded for individual animals in detail.
# Tumor volumes were measured twice per week after randomization in two dimensions using a caliper, and the volume were expressed in mm3 using the formula: “V=(L×W×W)/2, where V is tumor volume, L is tumor length (the longest tumor dimension) and W is tumor width (the longest tumor dimension perpendicular to L). Tumor weight were measured at the end of study. Dosing as well as tumor and body weight measurements were conducted in a Laminar Flow Cabinet.
# Statistical Analysis: To compare tumor volumes of different groups at a pre-specified day, Bartlett's test was firstly used to check the assumption of homogeneity of variance across all groups. When the p-value of Bartlett's test is >0.05, One-way ANOVA were used to test overall equality of means across all groups.
# If the p-value of the One-way ANOVA is <0.05, post hoc testing by running Tukey's HSD (honest significant difference) tests for all pairwise comparisons, and Dunnett's tests for comparing each treatment group with the vehicle group were performed. When the p-value of Bartlett's test is <0.05, Kruskal-Wallis test were used to test overall equality of medians among all groups. If the p-value the Kruskal-Wallis test is <0.05, post hoc testing by running Conover's non-parametric test for all pairwise comparisons or for comparing each treatment group with the vehicle group were performed, both with single-step p-value adjustment. All statistical analyses were done in R-a language and environment for statistical computing and graphics (version 3.3.1). All tests are two-sided unless otherwise specified, and p-values of <0.05 are regarded as statistically significant.
# [1] = test system: bleomycin induced pulmonary fibrosis; experiment: Bleomycin induced pulmonary fibrosis, 21 days; assay type: in vivo, mice; settings: day 21; pirfenidone 100 mg/kg, IVc-059a 15 mg/kg
# Procedure: A total of 40 male Balb/c mice aged 8-10 weeks were used for the study.
# Mice were anesthetized using an IP injection of xylazine and ketamine. Once an appropriate plane of anaesthesia was achieved, animals had 1.0 U/kg bleomycin sulphate instilled via intratracheal route. The total volume of liquid was 50 μL.
# Dosing of IV and positive control (pirfenidone) started 24 hours after bleomycin instillation.
# Drug solution was formulated immediately prior to dosing. For a dose of 15 mg/kg (enough for 12, 30 g mice) 4.5 mg of compound was weighed out. 75 μl (5%) DMSO added and mixed until drug is in solution. 150 μl (10%) solutol added and vortexed gently, 150 μl (10%) PEG400 added and vortexed gently. 1000 μl PBS (pH7) was added and matrix was measured to ensure pH 7.0 was maintained. Remaining PBS (to a total of 1500 μl) was added. Compound remained in solution. […]
# Ashcroft score: Lungs from each animal were FFPE, sectioned and stained with H&E according to an in-house protocol. […] Each lung was scored using the Ashcroft grading system to measure degree of inflammation/fibrosis as per Hubner et al., 2008. […]
# An entire lung from each animal was formalin fixed and stored in 70% ethanol. […] Percent area covered by trichrome staining was quantified using Qupath and ImageJ software.
smiles,measurement,setting,value
"O=C(O)c1cc(O)cc(CS(=O)(=O)Cc2cc(O)cc(C(=O)O)c2O)c1O [IVc-059a, 3-((2,5-Dihydroxy-3-carboxyphenyl)methylsulfonylmethyl)-2,5-dihydroxybenzoic acid]",Mean % inhibition of tumor volume Renca model,Renca tumor cells; Day 0,0.05%
same,Mean % inhibition of tumor volume Renca model,Renca tumor cells; Day 3,−0.90%
same,Mean % inhibition of tumor volume Renca model,Renca tumor cells; Day 6,5.02%
same,Mean % inhibition of tumor volume Renca model,Renca tumor cells; Day 9,14.83%
same,Mean % inhibition of tumor volume Renca model,Renca tumor cells; Day 13,23.07%
same,Mean % inhibition of tumor volume Renca model,Renca tumor cells; Day 16,19.42%
same,Onset of fibrosis in mouse lung (Ashcroft score),[1],reduced the onset of fibrosis in mouse lung
